Data taken from patent US20090018134A1, “Compounds - 945” (AstraZeneca AB, priority 2007, published 2009).
pIC50: −log10 of the molar value. Read-outs that look alike come from different tables or passages of the source.

Target: T1, mTOR (Homo sapiens, UniProt P42345)
T1 construct: FLAG; made in house
Test: In Vitro mTOR Kinase Assay (Echo), Test (a)(ii)
Assay type: biochemical
How it was run: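 FLAG-tagged human mTOR truncation (residues 1362-2549) expressed in HEK293 cells and FLAG-purified. Compounds dispensed acoustically, reaction 2 h at room temperature, stopped with EDTA. Phosphorylation of biotinylated peptide detected by AlphaScreen with anti-p70 S6K (T389) antibody overnight; IC50 reported.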

[1] = table of enzyme assay Test (a)(ii), read-out: Test (a)(ii) IC50
[2] = read-out: mTOR Kinase Assay (Echo)

T1 sequence (P42345 1362-2549): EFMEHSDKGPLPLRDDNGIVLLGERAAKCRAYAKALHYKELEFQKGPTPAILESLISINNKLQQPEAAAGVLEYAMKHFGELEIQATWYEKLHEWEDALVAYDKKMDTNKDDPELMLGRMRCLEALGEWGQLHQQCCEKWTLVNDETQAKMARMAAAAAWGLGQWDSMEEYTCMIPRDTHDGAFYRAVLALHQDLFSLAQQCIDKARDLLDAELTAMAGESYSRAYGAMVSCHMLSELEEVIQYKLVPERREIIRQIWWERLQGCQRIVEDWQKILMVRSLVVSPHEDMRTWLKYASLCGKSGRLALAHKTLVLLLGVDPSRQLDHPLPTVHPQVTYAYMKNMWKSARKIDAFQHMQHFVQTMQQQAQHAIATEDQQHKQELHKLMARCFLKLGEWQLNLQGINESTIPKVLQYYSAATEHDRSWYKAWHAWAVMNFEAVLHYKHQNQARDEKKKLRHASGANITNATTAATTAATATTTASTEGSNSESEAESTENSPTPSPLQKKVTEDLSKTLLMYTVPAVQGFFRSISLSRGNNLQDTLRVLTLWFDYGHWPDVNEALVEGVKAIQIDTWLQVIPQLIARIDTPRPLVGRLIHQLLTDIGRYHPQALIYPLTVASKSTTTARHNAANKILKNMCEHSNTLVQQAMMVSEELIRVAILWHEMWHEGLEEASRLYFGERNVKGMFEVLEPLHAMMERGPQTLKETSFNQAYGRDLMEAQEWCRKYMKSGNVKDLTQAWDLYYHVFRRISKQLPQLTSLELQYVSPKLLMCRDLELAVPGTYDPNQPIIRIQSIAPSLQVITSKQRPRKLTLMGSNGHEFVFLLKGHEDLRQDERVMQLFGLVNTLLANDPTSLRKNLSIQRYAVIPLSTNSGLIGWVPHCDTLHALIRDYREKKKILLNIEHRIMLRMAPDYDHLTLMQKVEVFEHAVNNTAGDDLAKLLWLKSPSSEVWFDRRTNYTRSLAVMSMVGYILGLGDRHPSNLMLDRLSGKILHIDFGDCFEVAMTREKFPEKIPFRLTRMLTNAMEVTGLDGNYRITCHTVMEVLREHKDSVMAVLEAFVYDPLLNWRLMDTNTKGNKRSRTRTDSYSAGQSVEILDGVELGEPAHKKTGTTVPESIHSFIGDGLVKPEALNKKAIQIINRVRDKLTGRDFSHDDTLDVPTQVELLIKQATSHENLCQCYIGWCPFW

`NC(=O)CS(=O)(=O)C1(c2cc(N3CCOCC3)nc(-c3ccc(NC(=O)NC4CC4)cc3)n2)CC1` [Example 46, 2-[1-[2-[4-(Cyclopropylcarbamoylamino)phenyl]-6-morpholin-4-ylpyrimidin-4-yl]cyclopropyl]sulfonylacetamide] gave a pIC50 [1] of 8.34.

`O=C(NCCO)Nc1ccc(-c2nc(N3CCOCC3)cc(C3(S(=O)(=O)C4CC4)CCCC3)n2)cc1` [Example 13l, 1-[4-[4-(1-cyclopropylsulfonylcyclopentyl)-6-morpholin-4-ylpyrimidin-2-yl]phenyl]-3-(2-hydroxyethyl)urea] showed a pIC50 [1] of 7.97.

Work on `CC(C)S(=O)(=O)C1(c2cc(N3CCOC[C@@H]3C)nc(-c3ccc(NC(=O)Nc4ccc(C(F)(F)F)cc4)cc3)n2)CC1` [Example 7k, 1-[4-[4-[(3S)-3-methylmorpholin-4-yl]-6-(1-propan-2-ylsulfonylcyclopropyl)pyrimidin-2-yl]phenyl]-3-[4-(trifluoromethyl)phenyl]urea] yielded a pIC50 [2] of 8.32.

Work on `C[C@H]1COCCN1c1cc(C2(S(=O)(=O)CCCO)CCC2)nc(-c2ccc(NC(=O)Nc3cnn(C)c3)cc2)n1` [Example 43d, 1-[4-[4-[1-(3-hydroxypropylsulfonyl)cyclobu-tyl]-6-[(3S)-3-methylmorpholin-4-yl]pyrimidin-2-yl]phenyl]-3-(1-methylpyrazol-4-yl)urea] yielded a pIC50 [1] of 7.96.

Compound `CCNC(=O)Nc1ccc(-c2nc(N3[C@@H](C)COC[C@@H]3C)cc(C3(S(=O)(=O)C4CC4)CC3)n2)cc1` [Example 92d, 1-[4-[4-(1-cyclopropylsulfonylcyclopropyl)-6-[(3S,5S)-3,5-dimethylmorpholin-4-yl]pyrimidin-2-yl]phenyl]-3-ethylurea] has a pIC50 [1] of 8.09.

Work on `C[C@H]1COCCN1c1cc(C2(S(=O)(=O)c3ccccc3)CCOCC2)nc(-c2ccc(NC(=O)NC3CC3)cc2)n1` [Example 36da, 1-[4-[4-[4-(benzenesulfonyl)oxan-4-yl]-6-[(3S)-3-methylmorpholin-4-yl]pyrimidin-2-yl]phenyl]-3-cyclopropylurea] yielded a pIC50 [1] of 7.48.

Compound `C[C@H]1COCCN1c1cc(C2(S(=O)(=O)c3cc(F)ccc3F)CC2)nc(-c2ccc(NC(=O)NC3CC3)cc2)n1` [Example 60a, 3-cyclopropyl-1-[4-[4-[1-(2,5-difluorophenyl)sulfonylcyclopropyl]-6-[(3S)-3-methylmorpholin-4-yl]pyrimidin-2-yl]phenyl]urea] has a pIC50 [1] of 7.72.

Compound `CCNC(=O)Nc1ccc(-c2nc(N3CCOC[C@@H]3C)cc(C3(S(=O)(=O)c4ccccc4C)CC3)n2)cc1` [Example 54e, 1-ethyl-3-[4-[4-[(3S)-3-methylmorpholin-4-yl]-6-[1-(2-methylphenyl)sulfonylcyclo-propyl]pyrimidin-2-yl]phenyl]urea] has a pIC50 [1] of 8.12.

`CCNC(=O)Nc1ccc(-c2nc(N3CCOC[C@H]3C)cc(C3(S(=O)(=O)c4ccccc4)CC3)n2)cc1` [Example 69, 1-[4-[4-[1-(Benzenesulfonyl)cyclopropyl]-6-[(3R)-3-methylmorpholin-4-yl]pyrimidin-2-yl]phenyl]-3-ethylurea] was tested, and the pIC50 [1] was 8.10.

For `CCNC(=O)Nc1ccc(-c2nc(N3CCOC[C@@H]3C)cc(C3(S(=O)(=O)c4cc(F)cc(F)c4)CC3)n2)cc1` [Example 19e, 1-[4-[4-[1-(3,5-difluorophenyl)sulfonylcyclopro-pyl]-6-[(3S)-3-methylmorpholin-4-yl]pyrimidin-2-yl]phenyl]-3-ethylurea], the pIC50 [1] was 8.87.

`CC[C@H]1COCCN1c1cc(C2(S(=O)(=O)c3ccccc3)CC2)nc(-c2ccc(NC(=O)NC3CC3)cc2)n1` [Example 74a, 1-[4-[4-[1-(benzenesulfonyl)cyclopropyl]-6-[(3S)-3-ethylmorpholin-4-yl]pyrimidin-2-yl]phenyl]-3-cyclopropylurea] was tested, and the pIC50 [1] was 8.40.

In the case of `C[C@H]1COCCN1c1cc(C2(S(=O)(=O)c3cc(F)cc(F)c3)CC2)nc(-c2ccc(NC(=O)NC3CC3)cc2)n1` [Example 19, 3-Cyclopropyl-1-[4-[4-[1-(3,5-difluorophenyl)sulfonylcyclopropyl]-6-[(3S)-3-methylmorpholin-4-yl]pyrimidin-2-yl]phenyl]urea], the pIC50 [1] was 8.88.

With `C[C@H]1COCCN1c1cc(C2(S(=O)(=O)c3ccccc3)CC2)nc(-c2ccc(NC(=O)NC(C)(C)CO)cc2)n1` [Example 36bk, 1-[4-[4-[1-(benzenesulfonyl)cyclopropyl]-6-[(3S)-3-methylmorpholin-4-yl]pyrimidin-2-yl]phenyl]-3-(1-hydroxy-2-methylpropan-2-yl)urea] the pIC50 [1] was 8.36.

With `C[C@H]1COC[C@H](C)N1c1cc(C2(S(C)(=O)=O)CC2)nc(-c2ccc(NC(=O)NCCF)cc2)n1` [Example 91c, 1-[4-[4-[(3S,5S)-3,5-dimethylmorpholin-4-yl]-6-(1-methylsulfonylcyclopropyl)pyrimidin-2-yl]phenyl]-3-(2-fluoroethyl)urea] the pIC50 [1] was 8.43.

`C[C@H]1COCCN1c1cc(C2(S(=O)(=O)C3CC3)CCCC2)nc(-c2ccc(NC(=O)NCCO)cc2)n1` [Example 36k, 1-[4-[4-(1-cyclopropylsulfonylcyclopentyl)-6-[(3S)-3-methylmorpholin-4-yl]pyrimidin-2-yl]phenyl]-3-(2-hydroxyethyl)urea] was tested, and the pIC50 [1] was 7.88.

With `CNC(=O)Nc1ccc(-c2nc(N3CCOC[C@@H]3C)cc(C3(S(=O)(=O)C4CC4)CC3)n2)cc1` [Example 3i, 1-[4-[4-(1-cyclopropylsulfonylcyclopropyl)-6-[(3S)-3-methylmorpholin-4-yl]pyrimidin-2-yl]phenyl]-3-methyl-urea] the pIC50 [2] was 9.03.

In the case of `O=C(NCCO)Nc1ccc(-c2nc(N3CCOCC3)cc(C3(S(=O)(=O)c4ccncc4)CC3)n2)cc1` [Example 36ar, 3-(2-hydroxyethyl)-1-[4-[4-morpholin-4-yl-6-(1-pyridin-4-ylsulfonylcyclopropyl)pyrimidin-2-yl]phenyl]urea], the pIC50 [1] was 8.02.

In the case of `C[C@@H](CO)NC(=O)Nc1ccc(-c2nc(N3CCOC[C@@H]3C)cc(C3(S(=O)(=O)c4ccncc4)CCC3)n2)cc1` [Example 83a, 3-[(2S)-1-hydroxypropan-2-yl]-1-[4-[4-[(3S)-3-methylmorpholin-4-yl]-6-(1-pyridin-4-ylsulfonylcyclobutyl)pyrimidin-2-yl]phenyl]urea], the pIC50 [1] was 8.32.

`CNC(=O)Nc1ccc(-c2nc(N3CCOCC3)cc(C3(C(=O)N(C)C4CC4)CC3)n2)cc1` [Example 32c, N-cyclopropyl-N-methyl-1-[2-[4-(methylcarbamoylamino)phenyl]-6-morpholin-4-ylpyrimidin-4-yl]cyclopropane-1-carboxamide] was tested, and the pIC50 [1] was 8.54.

For `C[C@H]1COCCN1c1cc(C2(S(=O)(=O)CCCOC(F)F)CC2)nc(-c2ccc(NC(=O)Nc3cnn(C)c3)cc2)n1` [Example 96d, 1-[4-[4-[1-[3-(difluoromethoxy)propylsulfonyl]cyclopropyl]-6-[(3S)-3-methylmorpholin-4-yl]pyrimidin-2-yl]phenyl]-3-(1-methylpyrazol-4-yl)urea], the pIC50 [1] was 7.68.

Work on `C[C@H]1COCCN1c1cc(C2(S(=O)(=O)CCCO)CC2)nc(-c2ccc(NC(=S)NCCC#N)cc2)n1` [Example 37e, 3-(2-cyanoethyl)-1-[4-[4-[1-(3-hydroxypropylsulfonyl)cyclopro-pyl]-6-[(3S)-3-methylmorpholin-4-yl]pyrimidin-2-yl]phenyl]thiourea] yielded a pIC50 [1] of 8.31.

In the case of `C[C@H]1COCCN1c1cc(C2(S(C)(=O)=O)CCC2)nc(-c2ccc(NC(=O)NC3CCC3)cc2)n1` [Example 5d, 3-cyclobutyl-1-[4-[4-[(3S)-3-methylmorpholin-4-yl]-6-(1-methylsulfonylcyclobutyl)pyrimidin-2-yl]phenyl]urea], the pIC50 [2] was 8.41 and the pIC50 [1] was 8.56.

With `CC[C@H]1COCCN1c1cc(C2(S(C)(=O)=O)CC2)nc(-c2ccc(NC(=O)NC3CC3)cc2)n1` [Example 84a, 3-cyclopropyl-1-[4-[4-[(3S)-3-ethylmorpholin-4-yl]-6-(1-methylsulfonylcyclopropyl)pyrimidin-2-yl]phenyl]urea] the pIC50 [1] was 8.04.

`C[C@H]1COCCN1c1cc(C2(S(=O)(=O)CCCO)CCC2)nc(-c2ccc(NC(=O)NCc3ncc[nH]3)cc2)n1` [Example 43e, 1-[4-[4-[1-(3-hydroxypropylsulfonyl)cyclobu-tyl]-6-[(3S)-3-methylmorpholin-4-yl]pyrimidin-2-yl]phenyl]-3-(1H-imidazol-2-ylmethyl)urea] showed a pIC50 [1] of 6.73.

`C[C@H]1COCCN1c1cc(C2(S(=O)(=O)C3CC3)CC2)nc(-c2cnc(NC(=O)NC3CC3)nc2)n1` [Example 14w, 3-cyclopropyl-1-[5-[4-(1-cyclopropylsulfonylcyclopropyl)-6-[(3S)-3-methylmorpholin-4-yl]pyrimidin-2-yl]pyrimidin-2-yl]urea] was tested, and the pIC50 [1] was 6.68.

In the case of `Cc1csc(S(=O)(=O)C2(c3cc(N4CCOCC4)nc(-c4ccc(NC(=O)NC5CCC5)cc4)n3)CC2)n1` [Example 42e, 3-cyclobutyl-1-[4-[4-[1-[(4-methyl-1,3-thiazol-2-yl)sulfonyl]cyclopropyl]-6-morpholin-4-ylpyrimidin-2-yl]phenyl]urea], the pIC50 [1] was 8.59.

Work on `C[C@H]1COCCN1c1cc(C2(S(=O)(=O)C3CCCCC3)CC2)nc(-c2ccc(NC(=O)Nc3cnn(C)c3)cc2)n1` [Example 26h, 1-[4-[4-(1-cyclohexylsulfonylcyclopropyl)-6-[(3S)-3-methylmorpholin-4-yl]pyrimidin-2-yl]phenyl]-3-(1-methylpyrazol-4-yl)urea] yielded a pIC50 [1] of 8.40.

Work on `C[C@H]1COC[C@H](C)N1c1cc(C2(S(=O)(=O)c3ccccc3)CC2)nc(-c2ccc(NC(=O)NCCF)cc2)n1` [Example 93c, 1-[4-[4-[1-(benzenesulfonyl)cyclopropyl]-6-[(3S,5S)-3,5-dimethylmorpholin-4-yl]pyrimidin-2-yl]phenyl]-3-(2-fluoroethyl)urea] yielded a pIC50 [1] of 8.54.

In the case of `CC[C@H]1COCCN1c1cc(C2(S(=O)(=O)c3ccccc3)CC2)nc(-c2ccc(NC(=O)NCCO)cc2)n1` [Example 74b, 1-[4-[4-[1-(benzenesulfonyl)cyclopropyl]-6-[(3S)-3-ethylmorpholin-4-yl]pyrimidin-2-yl]phenyl]-3-(2-hydroxyethyl)urea], the pIC50 [1] was 8.61.
